Values of other authors in patent US10544223B2, “Combination therapy with an anti-axl antibody-drug conjugate” (ADC THERAPEUTICS SA, priority 2017, dated 2020).

What was measured:
DNA repair genes = conditions: inhibition of AXL
AXL = conditions: incubation of tumor cells with MEKi
advanced melanoma = conditions: phase III trials, advanced melanoma patients

Compound	efficiency of the homologous recombination repair machinery (DNA repair genes)	expression of DNA repair genes (DNA repair genes)	accumulation of AXL on the membrane of tumor cells (AXL)	other results
Nc1nc(Nc2ccc3c(c2)CC[C@@H](N2CCCC2)CC3)nn1-c1cc2c(nn1)-c1ccccc1CCC2 [BGB324]	diminish the efficiency of the homologous recombination repair machinery	decrease expression of DNA repair genes		
O=C(NOC[C@H](O)CO)c1ccc(F)c(F)c1Nc1ccc(I)cc1F [PD325901]			induced a strong accumulation of AXL	
CN1CCN(Cc2ccc(Nc3ncc(Cl)c(Nc4ccccc4S(=O)(=O)N(C)C)n3)cc2)CC1 [TP0903]	diminish the efficiency of the homologous recombination repair machinery	decrease expression of DNA repair genes		
N#CC(=C(/N)Sc1ccccc1N)/C(C#N)=C(\N)Sc1ccccc1N [U0126]			induced a strong accumulation of AXL	
Fludarabine				ERCC1 transcription (ERCC1 transcription): suppress ERCC1 transcription
tremelimumab: anti-CTLA4 antibody				overall survival compared to the standard of care (temozolomide or dacarbazine) (advanced melanoma): did not significantly increase the overall survival
